From patent US20250281457A1, “TREATMENT OR PREVENTION OF DENGUE VIRAL INFECTION” (Janssen Pharmaceuticals, Inc., priority 2022, published 2025)
Like-named read-outs stand apart in the source and are kept apart here.

Experiment: Effect of food on plasma pharmacokinetics after single oral dose of SF2a/b (Example 2)
Assay type: in vivo, human
Conditions: for AUC(0-t) / AUC(0-inf) / Cmax / half-life / Tmax: both sexes, human, plasma, oral; for Tmax: read-out: tmax, Median
Description: The effect of food on the pharmacokinetics (PK) of Compound (a) was assessed in healthy participants after a single oral dose of SF2a/b, described in Example 1, administered at different dose levels in a randomized single dose, 2-period crossover study. The effect of food on the PK of Compound (a) was determined at 3 different dose levels (50 mg, 200 mg, and 800 mg) for a standardized breakfast; at one dose level (800 mg) for a high-fat, high-calorie breakfast; at two dose levels (200 mg and 800 mg) for a low-fat, low-calorie breakfast, as well as for a low-fat, high-calorie breakfast. 124 healthy adult participants (male and female, 18 to 55 years of age) were enrolled in this study. The volunteers were divided in six panels, which were organized as follows: • Panel […]: • Treatment D: A single 800-mg dose (4×200-mg tablets) of Compound (a) SF2b in fasted conditions. • Treatment E: A single 800-mg dose (4×200-mg tablets) of Compound (a) SF2b in fed conditions (standardized breakfast). • Treatments D and E (treatment sequence group 1 [n=8]: DE; treatment sequence group 2 [n=8]: ED). Panel 4, n=14: • Treatment F: A single 200-mg dose (1×200-mg tablet) of Compound (a) SF2b in fasted conditions. • Treatment G: A single 200-mg dose (1×200-mg tablet) of Compound (a) SF2b, in fed conditions (standardized breakfast). • Treatments F and G (treatment sequence group 1 [n=7]: FG; treatment sequence group 2 [n=7]: GF). Panel […]: • Treatment H: A single 50-mg dose (1×50-mg tablet) of Compound (a) SF2a in fasted conditions. • Treatment I: A single 50-mg dose (1×50-mg tablet) of Compound (a) SF2a in fed conditions (standardized breakfast). • Treatments H and I (treatment sequence group 1 [n=7]: HI; treatment sequence group 2 [n=7]: IH). Panel 6 (n=16): • Treatment J: single 800-mg dose (4×200-mg tablets) of Compound (a) administered as SF2b in fasted conditions. • Treatment K: single 800-mg dose (4×200-mg tablets) of Compound (a) administered as SF2b in fed conditions (high-fat, high-calorie breakfast). • Treatments J and K (treatment sequence group 1 [n=8]: JK; treatment sequence group 2 [n=8]: KJ). Panel 7 (n=32): • Treatment L: single 800-mg dose (4×200-mg tablets) of Compound (a) administered as SF2b in fed conditions (low-fat, low-calorie breakfast). • Treatment M: single 800-mg dose (4×200-mg tablets) of Compound (a) administered as SF2b in fed conditions (low-fat, high-calorie breakfast). • Treatment L (n=16) or Treatment M (n=16). Panel 8 (n=32): • Treatment N: single 200-mg dose (1×200-mg tablet) of Compound (a) administered as SF2b in fed conditions (low-fat, low-calorie breakfast). • Treatment O: single 200-mg dose (1×200-mg tablet) of Compound (a) administered as SF2b in fed conditions (low-fat, high-calorie breakfast). • Treatment N (n=16) or Treatment O (n=16). Tablets were administered orally, together with approximately 240 mL of non-carbonated water, in fasted or fed conditions. […] On day 1 of all treatments in each panel, the participants had fasted overnight for at least 10 hours before study drug intake. Intake of water was not allowed from 2 hours before and until 2 hours after study drug intake, except for the water used for study drug intake and breakfast. In case of intake in fed conditions, study drug was administered within 10 minutes after completing a standardized breakfast (Treatments E, G, and I), or a high-fat, high-calorie breakfast (Treatment K), a low-fat, low-calorie breakfast (Treatments L and N), or a low-fat, high-calorie breakfast (Treatments M and O). For treatments E, G, and I a standardized breakfast was served, consisting of (or its equivalent) 4 slices of bread, 2 slices of ham or cheese, butter, jelly, and 1 or 2 cups (up to 355 mL) of decaffeinated coffee or tea with milk and/or sugar, if desired (containing approximately: fat: 21 g, carbohydrates: 67 g, proteins: 19 g; total calories: 533 kcal). For treatment K in a high-fat, high-calorie breakfast was served. […]

[1] = 50 mg SF2a, standardized breakfast vs fasted
[2] = 200 mg SF2b, low-fat, high-calorie vs standardized breakfast
[3] = 200 mg SF2b, low-fat, low-calorie vs standardized breakfast
[4] = 200 mg SF2b, standardized breakfast vs fasted
[5] = 800 mg SF2b, high-fat, high-calorie breakfast vs fasted
[6] = 800 mg SF2b, low-fat, high-calorie vs standardized breakfast
[7] = 800 mg SF2b, low-fat, low-calorie vs standardized breakfast
[8] = 800 mg SF2b, standardized breakfast vs fasted

COc1cc(NC(C(=O)c2c[nH]c3ccc(OC(F)(F)F)cc23)c2ccc(Cl)cc2OC)cc(S(C)(=O)=O)c1 (centres unmarked) [Compound (a)]
AUClast, Geometric Mean Ratio Treatment I vs Treatment H [1]: 120.38% | AUC∞, Geometric Mean Ratio Treatment I vs Treatment H [1]: 121.24% | Cmax, Geometric Mean Ratio Treatment I vs Treatment H [1]: 132.83% | AUClast, Geometric Mean Ratio Treatment O vs Treatment G [2]: 66.47% | AUC∞, Geometric Mean Ratio Treatment O vs Treatment G [2]: 67.23% | Cmax, Geometric Mean Ratio Treatment O vs Treatment G [2]: 72.81% | AUClast, Geometric Mean Ratio Treatment N vs Treatment G [3]: 73.28% | AUC∞, Geometric Mean Ratio Treatment N vs Treatment G [3]: 73.61% | Cmax, Geometric Mean Ratio Treatment N vs Treatment G [3]: 72.54% | AUClast, Geometric Mean Ratio Treatment G vs Treatment F [4]: 168.45% | AUC∞, Geometric Mean Ratio Treatment G vs Treatment F [4]: 172.00% | Cmax, Geometric Mean Ratio Treatment G vs Treatment F [4]: 176.07% | AUClast, Geometric Mean Ratio Treatment K vs Treatment J [5]: 391.52% | AUC∞, Geometric Mean Ratio Treatment K vs Treatment J [5]: 384.08% | Cmax, Geometric Mean Ratio Treatment K vs Treatment J [5]: 409.01% | AUClast, Geometric Mean Ratio Treatment M vs Treatment E [6]: 65.27% | AUC∞, Geometric Mean Ratio Treatment M vs Treatment E [6]: 69.35% | Cmax, Geometric Mean Ratio Treatment M vs Treatment E [6]: 60.73% | AUClast, Geometric Mean Ratio Treatment L vs Treatment E [7]: 60.37% | AUC∞, Geometric Mean Ratio Treatment L vs Treatment E [7]: 64.71% | Cmax, Geometric Mean Ratio Treatment L vs Treatment E [7]: 60.56% | AUClast, Geometric Mean Ratio Treatment E vs Treatment D [8]: 241.23% | AUC∞, Geometric Mean Ratio Treatment E vs Treatment D [8]: 238.11% | Cmax, Geometric Mean Ratio Treatment E vs Treatment D [8]: 277.77% | relative bioavailability for AUClast, standardized breakfast compared to fasted (SF2a/b, 50 mg dose): 124% | relative bioavailability for Cmax, standardized breakfast compared to fasted (SF2a/b, 50 mg dose): 133% | relative bioavailability for AUClast, standardized breakfast compared to fasted (SF2a/b, 800 mg dose): 243% | relative bioavailability for Cmax, standardized breakfast compared to fasted (SF2a/b, 800 mg dose): 278% | exposure, high-fat, high-calorie breakfast compared to fasted conditions (SF2a/b, single dose 800 mg): approximately 4 times higher | tlast, Median (Treatment D: single 800 mg (SF2b), fasted): 840.00 h | tlast, Median (Treatment E: single 800 mg (SF2b), fed, standardized breakfast): 840.00 h | tlast, Median (Treatment F: single 200 mg (SF2b), fasted): 840.00 h | tlast, Median (Treatment G: single 200 mg (SF2b), fed, standardized breakfast): 840.00 h | tlast, Median (Treatment H: single 50 mg (SF2a), fasted): 840.00 h | tlast, Median (Treatment I: single 50 mg (SF2a), fed, standardized breakfast): 840.00 h | AUC(0-t) (50 mg, 50 mg SF2a, fasted, linear mixed effects model (Table 5C), read-out: AUClast, Geometric Mean Treatment H): 17900 ng·h/mL | AUC(0-inf) (50 mg, 50 mg SF2a, fasted, linear mixed effects model (Table 5C), read-out: AUC∞, Geometric Mean Treatment H): 18700 ng·h/mL | Cmax (50 mg, 50 mg SF2a, fasted, linear mixed effects model (Table 5C), read-out: Cmax, Geometric Mean Treatment H): 193 ng/mL | AUC(0-t) (50 mg, 50 mg SF2a, standardized breakfast, linear mixed effects model (Table 5C), read-out: AUClast, Geometric Mean Treatment I): 21600 ng·h/mL | AUC(0-inf) (50 mg, 50 mg SF2a, standardized breakfast, linear mixed effects model (Table 5C), read-out: AUC∞, Geometric Mean Treatment I): 22700 ng·h/mL | Cmax (50 mg, 50 mg SF2a, standardized breakfast, linear mixed effects model (Table 5C), read-out: Cmax, Geometric Mean Treatment I): 257 ng/mL | AUC(0-t) (50 mg, Treatment H: single 50 mg (SF2a), fasted, read-out: AUClast, Geo. Mean): 18000 ng·h/mL | AUC(0-t) (50 mg, Treatment H: single 50 mg (SF2a), fasted, read-out: AUClast, Mean): 19900 ng·h/mL | AUC(0-t) (50 mg, Treatment H: single 50 mg (SF2a), fasted, read-out: AUClast, Median): 18500 ng·h/mL | AUC(0-inf) (50 mg, Treatment H: single 50 mg (SF2a), fasted, read-out: AUC∞, Geo. Mean): 18800 ng·h/mL | AUC(0-inf) (50 mg, Treatment H: single 50 mg (SF2a), fasted, read-out: AUC∞, Mean): 21000 ng·h/mL | AUC(0-inf) (50 mg, Treatment H: single 50 mg (SF2a), fasted, read-out: AUC∞, Median): 18800 ng·h/mL | Cmax (50 mg, Treatment H: single 50 mg (SF2a), fasted, read-out: Cmax, Geo. Mean): 195 ng/mL | Cmax (50 mg, Treatment H: single 50 mg (SF2a), fasted, read-out: Cmax, Mean): 214 ng/mL | Cmax (50 mg, Treatment H: single 50 mg (SF2a), fasted, read-out: Cmax, Median): 208 ng/mL | half-life (50 mg, Treatment H: single 50 mg (SF2a), fasted, read-out: t1/2, term, Geo. Mean (converted)): 167 h | half-life (50 mg, Treatment H: single 50 mg (SF2a), fasted, read-out: t1/2, term, Mean (converted)): 176 h | half-life (50 mg, Treatment H: single 50 mg (SF2a), fasted, read-out: t1/2, term, Median (converted)): 162 h | Tmax (50 mg, Treatment H: single 50 mg (SF2a), fasted): 7 h | AUC(0-t) (50 mg, Treatment I: single 50 mg (SF2a), fed, standardized breakfast, read-out: AUClast, Geo. Mean): 21100 ng·h/mL | AUC(0-t) (50 mg, Treatment I: single 50 mg (SF2a), fed, standardized breakfast, read-out: AUClast, Mean): 22900 ng·h/mL | AUC(0-t) (50 mg, Treatment I: single 50 mg (SF2a), fed, standardized breakfast, read-out: AUClast, Median): 20400 ng·h/mL | AUC(0-inf) (50 mg, Treatment I: single 50 mg (SF2a), fed, standardized breakfast, read-out: AUC∞, Geo. Mean): 22100 ng·h/mL | AUC(0-inf) (50 mg, Treatment I: single 50 mg (SF2a), fed, standardized breakfast, read-out: AUC∞, Mean): 24600 ng·h/mL | AUC(0-inf) (50 mg, Treatment I: single 50 mg (SF2a), fed, standardized breakfast, read-out: AUC∞, Median): 20800 ng·h/mL | Cmax (50 mg, Treatment I: single 50 mg (SF2a), fed, standardized breakfast, read-out: Cmax, Geo. Mean): 257 ng/mL | Cmax (50 mg, Treatment I: single 50 mg (SF2a), fed, standardized breakfast, read-out: Cmax, Mean): 288 ng/mL | Cmax (50 mg, Treatment I: single 50 mg (SF2a), fed, standardized breakfast, read-out: Cmax, Median): 267 ng/mL | half-life (50 mg, Treatment I: single 50 mg (SF2a), fed, standardized breakfast, read-out: t1/2, term, Geo. Mean (converted)): 174 h | half-life (50 mg, Treatment I: single 50 mg (SF2a), fed, standardized breakfast, read-out: t1/2, term, Mean (converted)): 185 h | half-life (50 mg, Treatment I: single 50 mg (SF2a), fed, standardized breakfast, read-out: t1/2, term, Median (converted)): 159 h | Tmax (50 mg, Treatment I: single 50 mg (SF2a), fed, standardized breakfast): 6.5 h | AUC(0-t) (200 mg, 200 mg SF2b, fasted, linear mixed effects model (Table 5B), read-out: AUClast, Geometric Mean Treatment F): 60500 ng·h/mL | AUC(0-inf) (200 mg, 200 mg SF2b, fasted, linear mixed effects model (Table 5B), read-out: AUC∞, Geometric Mean Treatment F): 60500 ng·h/mL | Cmax (200 mg, 200 mg SF2b, fasted, linear mixed effects model (Table 5B), read-out: Cmax, Geometric Mean Treatment F): 559 ng/mL | AUC(0-t) (200 mg, 200 mg SF2b, fed, low-fat, high-calorie breakfast, read-out: AUClast, Geometric LS Means Treatment O): 65200 ng·h/mL | AUC(0-inf) (200 mg, 200 mg SF2b, fed, low-fat, high-calorie breakfast, read-out: AUC∞, Geometric LS Means Treatment O): 69300 ng·h/mL | Cmax (200 mg, 200 mg SF2b, fed, low-fat, high-calorie breakfast, read-out: Cmax, Geometric LS Means Treatment O): 700 ng/mL | AUC(0-t) (200 mg, 200 mg SF2b, fed, low-fat, low-calorie breakfast, read-out: AUClast, Geometric LS Means Treatment N): 71900 ng·h/mL | AUC(0-inf) (200 mg, 200 mg SF2b, fed, low-fat, low-calorie breakfast, read-out: AUC∞, Geometric LS Means Treatment N): 75800 ng·h/mL | Cmax (200 mg, 200 mg SF2b, fed, low-fat, low-calorie breakfast, read-out: Cmax, Geometric LS Means Treatment N): 697 ng/mL | AUC(0-t) (200 mg, 200 mg SF2b, fed, standardized breakfast (Tables 5E, 5G), read-out: AUClast, Geometric LS Means Treatment G): 98200 ng·h/mL
